Active and inactive are the calls of the source. The rule behind the calls is not given here.
Tests used:
Escherichia coli [1] = assay: Induction of membrane permeabilization in Escherichia coli ATCC 25922 assessed as loss of pili/flagella up to 128 uM after 1 hr by atomic force microscopic method; assay type: functional
Staphylococcus aureus [2] = assay: Antibacterial activity against Staphylococcus aureus ATCC 25923 after 18 hrs by microdilution method; assay type: functional; conditions: ATCC 25923, 18 h
Escherichia coli [3] = assay: Induction of membrane permeabilization in Escherichia coli ATCC 25922 assessed as massive cell disruption/collapse at MBC after 1 hr by atomic force microscopic method; assay type: functional
Staphylococcus aureus [4] = assay: Bactericidal activity against clinical isolates of Staphylococcus aureus after 18 hrs by microdilution method; assay type: functional; conditions: read-out: MBC=>99.9
Pseudomonas aeruginosa [5] = assay: Bactericidal activity against clinical isolates of Pseudomonas aeruginosa after 18 hrs by microdilution method; assay type: functional; conditions: read-out: MBC=>99.9
Escherichia coli [6] = assay: Induction of membrane permeabilization in Escherichia coli ATCC 25922 assessed as propidium iodide uptake preincubated up to 60 mins followed by propidium iodide addition by flow cytometry; assay type: functional
Acinetobacter baumannii [7] = assay: Bactericidal activity against Acinetobacter baumannii ATCC 19606 after 18 hrs by microdilution method; assay type: functional; conditions: ATCC 19606 = CIP 70.34 = JCM 6841, 18 h, read-out: MBC=>99.9
Klebsiella pneumoniae [8] = assay: Antibacterial activity against Klebsiella pneumoniae ATCC 13883 after 18 hrs by microdilution method; assay type: functional; conditions: ATCC 13883, 18 h
Acinetobacter baumannii [9] = assay: Bactericidal activity against clinical isolates of Acinetobacter baumannii after 18 hrs by microdilution method; assay type: functional; conditions: read-out: MBC=>99.9
Escherichia coli [10] = assay: Bactericidal activity against clinical isolates of Escherichia coli after 18 hrs by microdilution method; assay type: functional; conditions: read-out: MBC=>99.9
Escherichia coli [11] = assay: Growth inhibition of Escherichia coli ATCC 25922 measured every 10 mins for 4 hrs; assay type: functional
Escherichia coli [12] = assay: Induction of membrane permeabilization in Escherichia coli ATCC 25922 assessed as surface indentations at MIC after 1 hr by atomic force microscopic method; assay type: functional
Escherichia coli [13] = assay: Induction of membrane permeabilization in Escherichia coli ATCC 25922 assessed as loss of pili/flagella at MBC after 1 hr by atomic force microscopic method; assay type: functional
Acinetobacter baumannii [14] = assay: Antibacterial activity against clinical isolates of Acinetobacter baumannii after 18 hrs by microdilution method; assay type: functional
Pseudomonas aeruginosa [15] = assay: Antibacterial activity against Pseudomonas aeruginosa ATCC 27853 after 18 hrs by microdilution method; assay type: functional; conditions: ATCC 27853, 18 h
Klebsiella pneumoniae [16] = assay: Bactericidal activity against Klebsiella pneumoniae ATCC 13883 after 18 hrs by microdilution method; assay type: functional; conditions: ATCC 13883, 18 h, read-out: MBC=>99.9
Klebsiella pneumoniae [17] = assay: Antibacterial activity against clinical isolates of Klebsiella pneumoniae after 18 hrs by microdilution method; assay type: functional
Klebsiella pneumoniae [18] = assay: Bactericidal activity against clinical isolates of Klebsiella pneumoniae after 18 hrs by microdilution method; assay type: functional; conditions: read-out: MBC=>99.9
Staphylococcus aureus [19] = assay: Bactericidal activity against Staphylococcus aureus ATCC 25923 after 18 hrs by microdilution method; assay type: functional; conditions: ATCC 25923, 18 h, read-out: MBC=>99.9
Escherichia coli [20] = assay: Antibacterial activity against Escherichia coli ATCC 25922 after 18 hrs by microdilution method; assay type: functional
Escherichia coli [21] = assay: Induction of membrane permeabilization in Escherichia coli ATCC 25922 assessed as formation of pores/cavities at MIC after 1 hr by atomic force microscopic method; assay type: functional
Escherichia coli [22] = assay: Bactericidal activity against Escherichia coli ATCC 25922 after 18 hrs by microdilution method; assay type: functional; conditions: for MBC: ATCC 25922, 18 h, read-out: MBC=>99.9
Pseudomonas aeruginosa [23] = assay: Bactericidal activity against Pseudomonas aeruginosa ATCC 27853 after 18 hrs by microdilution method; assay type: functional; conditions: ATCC 27853, 18 h, read-out: MBC=>99.9
Staphylococcus aureus [24] = assay: Growth inhibition of Staphylococcus aureus ATCC 25923 measured every 10 mins for 4 hrs; assay type: functional
Escherichia coli [25] = assay: Antibacterial activity against clinical isolates of Escherichia coli after 18 hrs by microdilution method; assay type: functional
Escherichia coli [26] = assay: Induction of membrane permeabilization in Escherichia coli ATCC 25922 assessed as bleb formation at MIC after 1 hr by atomic force microscopic method; assay type: functional
Staphylococcus aureus [27] = assay: Antibacterial activity against clinical isolates of Staphylococcus aureus after 18 hrs by microdilution method; assay type: functional
Acinetobacter baumannii [28] = assay: Antibacterial activity against Acinetobacter baumannii ATCC 19606 after 18 hrs by microdilution method; assay type: functional; conditions: ATCC 19606 = CIP 70.34 = JCM 6841, 18 h
Pseudomonas aeruginosa [29] = assay: Antibacterial activity against clinical isolates of Pseudomonas aeruginosa after 18 hrs by microdilution method; assay type: functional
Escherichia coli [30] = assay: Induction of membrane permeabilization in Escherichia coli ATCC 25922 assessed as propidium iodide uptake at 0.25 to 1 times MIC preincubated up to 60 mins followed by propidium iodide addition by flow cytometry relative to control; assay type: functional
Escherichia coli [31] = assay: Induction of membrane permeabilization in Escherichia coli ATCC 25922 assessed as loss of pili/flagella at MIC after 1 hr by atomic force microscopic method; assay type: functional
[32] = Selectivity index, ratio of HC50 for human RBC to MIC for Escherichia coli ATCC 25922
[33] = Selectivity index, ratio of HC50 for human RBC to MIC for Pseudomonas aeruginosa ATCC 27853
[34] = Selectivity index, ratio of HC50 for human RBC to MIC for Klebsiella pneumoniae
[35] = Selectivity index, ratio of HC50 for human RBC to MIC for Klebsiella pneumoniae ATCC 13883
[36] = Selectivity index, ratio of HC50 for human RBC to MIC for Staphylococcus aureus ATCC 25923
Escherichia coli [37] = assay: Induction of membrane permeabilization in Escherichia coli ATCC 25922 assessed as propidium iodide uptake at MIC preincubated for 15 mins followed by propidium iodide addition by flow cytometry relative to control; assay type: functional
[38] = Selectivity index, ratio of HC50 for human RBC to MIC for Acinetobacter baumannii
[39] = Selectivity index, ratio of HC50 for human RBC to MIC for Pseudomonas aeruginosa
[40] = Selectivity index, ratio of HC50 for human RBC to MIC for Escherichia coli
[41] = Selectivity index, ratio of HC50 for human RBC to MIC for Acinetobacter baumannii ATCC 19606
[42] = Selectivity index, ratio of HC50 for human RBC to MIC for Staphylococcus aureus

Substance | MIC (Staphylococcus aureus [2]) [µM] | Activity (Escherichia coli [3]) | MBC (Staphylococcus aureus [4]) [µM] | MBC (Pseudomonas aeruginosa [5]) [µM] | IC50 (Escherichia coli [6]) [nM] | MBC (Acinetobacter baumannii [7]) [µM] | MIC (Klebsiella pneumoniae [8]) [µM] | MBC (Acinetobacter baumannii [9]) [µM] | MBC (Escherichia coli [10]) [µM] | IC50 (Escherichia coli [11]) [nM] | Activity (Escherichia coli [12]) | Activity (Escherichia coli [13]) | MIC (Acinetobacter baumannii [14]) [µM] | MIC (Pseudomonas aeruginosa [15]) [µM] | MBC (Klebsiella pneumoniae [16]) [µM] | MIC (Klebsiella pneumoniae [17]) [µM] | MBC (Klebsiella pneumoniae [18]) [µM] | MBC (Staphylococcus aureus [19]) [µM] | MIC (Escherichia coli [20]; ATCC 25922, 18 h) [µM] | Activity (Escherichia coli [21]) | further results
H-KIAGKAGKIAKIAGKAGKIA-NH2 | > 64 | Active | > 64 | > 64 | > 128000 | > 64 | > 64 | > 64 | > 64 | > 128000 | Active | Active | > 64 | > 64 | > 64 | > 64 | > 64 | > 64 | > 64 | Active | Activity (Escherichia coli [1]): inactive; MBC (Escherichia coli [22]): > 64 µM; MBC (Pseudomonas aeruginosa [23]): > 64 µM; IC50 (Staphylococcus aureus [24]): > 128000 nM; MIC (Escherichia coli [25]): > 64 µM; Activity (Escherichia coli [26]): Active; MIC (Staphylococcus aureus [27]): > 64 µM; MIC (Acinetobacter baumannii [28]): > 64 µM; MIC (Pseudomonas aeruginosa [29]): > 64 µM; Activity (Escherichia coli [30]): <5%
COLISTIN | – | – | – | – | – | – | – | – | – | – | – | Active | – | – | – | – | – | – | – | – | Activity (Escherichia coli [31]): Active; MIC (Escherichia coli [20]): 0.5 µM; MBC=>99.9 (Escherichia coli [22]): 0.5 µM
H-KIGKALGKALKALGKALGKA-NH2 | 16 | Active | 16 to 32 | 32 | 1400 | 2 | 16 | 64 | 64 | 700 | Active | Active | 32 to 64 | 8 | 32 | 16 | 32 | 32 | 8 | Active | Selectivity Index [32]: 2; Selectivity Index [33]: 2; Selectivity Index [34]: < 1; Selectivity Index [35]: < 1; Selectivity Index [36]: < 1; Activity (Escherichia coli [37]): >80%; Selectivity Index [38]: < 1; Selectivity Index [39]: < 1; Selectivity Index [40]: < 1; MBC (Escherichia coli [22]): 16 µM; MBC (Pseudomonas aeruginosa [23]): 16 µM; Selectivity Index [41]: 5; IC50 (Staphylococcus aureus [24]): 2300 nM; MIC (Escherichia coli [25]): 32 to 64 µM; Activity (Escherichia coli [26]): Active; MIC (Staphylococcus aureus [27]): 16 µM; MIC (Acinetobacter baumannii [28]): 2 µM; Selectivity Index [42]: < 1; MIC (Pseudomonas aeruginosa [29]): 16 to 32 µM
